According to patent publication US20110195910A1, “USE OF TOCOTRIENOL COMPOSITION FOR THE PREVENTION OF CANCER” (DAVOS LIFE SCIENCE PTE. LTD., priority 2008, published 2011):

What was measured:
MGH-U1 cells = assay: Western blotting of CD44, MGH-U1 cells; format: cell-based; conditions: bladder cancer cells
Method: 5.1.5 Western blotting was carried out as described above under 1.1.5. The membrane was incubated with primary antibodies directed against CD133 (Miltenyi Biotec, Auburn, Calif.), Bcl-2, PARP, cleaved caspase 3, 7, 9 (Cell Signaling, Technology Inc, Beverly, Mass.), CD44 and β-actin (Santa Cruz Biotechnology, Santa Cruz, Calif.). After washing with TBS-T, the membrane was incubated with secondary antibody against either mouse or rabbit IgG and the signals were visualized using ECL plus western blotting system (Amersham, Piscataway, N.J.).

[1] = Serum-based toxicity assay; format: in vivo, C57BL/6 black mice; conditions: 5 dose i.p. injections per week containing 1 mg
Method: 4.1.8 Serum-based toxicity assay—Ten C57BL/6 black mice were given 5 dose intraperitoneal (i.p) injections per week containing 1 mg of γ-tocotrienol or DMSO blank. Mice were sacrificed by cardiac bleeding and the serum was extracted by method described above. Serum level of the biomarkers albumin, creatine, alanine transaminase ALT, aspartate aminotransferase AST, urea and alkaline phosphatase ALP were then measured by the colorimetric-based detection kits purchased from RANDOX laboratories Ltd. (Crumlin, United Kingdom).

[2] = tested on: prostate intraepithelial neoplasia (PIN); assay: Prevention of prostate intraepithelial neoplasia (PIN) in prostate cancer mouse models; format: in vivo; conditions: fed mice, FIG. 8
Method: For experiments, 5-week old prostate cancer mouse models previously published (Gabril, M. Y., Duan, W., et al., Molecular Therapy (2005), vol. 11, no. 3, p. 348; Greenberg et al., Proc Natl Acad Sci USA (1995), vol. 92, pp. 3439-3443; Duan, W., Gabril, M. Y., et al., Oncogene (2005) 24, 1510-1524; Wang S, Gao J, et al., Cancer Cell., 2003, vol. 4, no. 3, pp. 209-21; Gabril, M. Y., Onita, T., et al., Gene Ther., 2002, vol. 9, no. 23, pp. 1589-99) are used. All animal experiments were conducted according to standard protocols approved by Animal Care Committee. Genotyping was performed in PSP-TGMAP, and KIMAP mice were identified by a quick PCR genotyping protocol as previously reported (see above references referred to under item 6).
In one exemplary experiment, the animals are given 1 mg of gamma tocotrienol per day for 30 weeks via oral gavage. At the end of 10, 20 and 30 weeks, animals are sacrificed. The prostate along with the male accessory glands, i.e., the ventral and dorsolateral prostate lobes, seminal vesicles, and coagulation gland, were dissected out separately for histopathological characterization of prostate tumor development, prostate intraepithelial neoplasia (PIN) development and microinvasion. […]

PC-3 cells = assay: Flow cytometry and western blotting, PC-3 cells; format: cell-based, human
Method: 1.1.3 Flow cytometry—Cell cycle distribution was examined using flow cytometry. Briefly, cells were harvested by trypsinization, fixed in 70% ethanol at 4° C. overnight, and then resuspended in PBS. After incubation at 4° C. for overnight, 2×10^6 cells were incubated with in 20 μg/ml propidium iodide (PI) and 2 mg RNaseA for 15 minutes at 37° C. Cells were then examined by BD SLRII cytometer and the results were analyzed using ModFit software (Becton Dickinson, Mountain View, Calif.). Data were expressed as the percentage of cell cycle distribution in the entire population.
1.1.5 Western blotting—Detailed protocols have been described previously and are known in the art. Briefly, cell lysates were prepared by suspending cell pellets in lysis buffer [50 mmol/l Tris-HCl (pH 8.0), 150 mmol/l NaCl, 1% NP40, 0.5% deoxycholate, 0.1% SDS, 1 mg/ml aprotinin, 1 μg/ml leupeptin and 1 mmol/l phenylmethylsulfonyl fluoride]. For nuclear protein extraction, NucBuster™ protein extraction kit was used. Protein concentration was measured using the DC Protein Assay kit (Bio-Rad, Hercules, Calif.). Equal amount of protein (30 μg) was loaded onto a 10% SDS polyacrylamide gel for electrophoresis and then transferred onto a polyvinylidene difluoride membrane (Amersham, Piscataway, N.J.). The membrane was then incubated with primary antibodies for 1 hr at room temperature against E-cadherin (BD Biosciences, Bedford, Mass.), α-catenin, β-catenin, γ-catenin, Id-1, Id-3, EGFR, phosphor-c-jun, phosphor-ATF2, cleaved PARP, vimentin, α-smooth muscle actin, twist (Santa Cruz Biotechnology, Calif.), phosphor-IkB-alpha (Ser32/36), phosphor-IKK alpha (Seri 80)/IKK beta (Ser181), phosphor-SAPK/JNK (Thr183/Tyr185) G9, SAPK/JNK, NF-kB p65 (5A5) (Cell Signaling Technology Inc, Beverly, Mass.), Snail (Abcam). After incubation with appropriate secondary antibodies, signals were visualized by ECL western blotting system (Amersham, Piscataway, N.J.). Expression of β-actin and histone H1 were assessed as an internal loading control for total cell lysate and nuclear protein lysate respectively.
2.1.4 Flow cytometry was carried out as described above under item 1.1.3. Matrigel-invasion assay was carried out as described above under item 1.1.4. Western blotting was carried out as described above under item 1.1.5.

In the case of `CC(C)=CCC/C(C)=C/CC/C(C)=C/CCC1(C)CCc2cc(O)c(C)c(C)c2O1` (stereo not shown) [γ-T3, 7,8-dimethyltocotrienol], the CD44 expression (MGH-U1 cells) is reported as “downregulate CD44 expression”, the “toxicological changes in serum parameters (Alb, Cre, ALT, AST, Ure, ALP)” value [1] is reported as “no toxicological changes” and the “development of prostate intraepithelial neoplasia (PIN)” value [2] is reported as “prevent the formation of prostate intraepithelial neoplasia (PIN)”. The “E-cadherin and γ-catenin protein expression” value (PC-3 cells; PC-3) was “up-regulated”, the JNK phosphorylation (PC-3 cells; PC-3) was “dosage- and time-dependent increase in JNK phosphorylation activities” and the “NF-κB p65 activity (nuclear translocation)” value (PC-3 cells; PC-3) was “suppressed constitutive NF-κB p65 activity in a dose-dependent and time-dependent manner”. The “Snail and mesenchymal markers (vimentin, α-SMA and twist) expression” value (PC-3 cells; PC-3, 24 hrs) was “down-regulated”, the “activation of pro-apoptotic proteins (cleaved products)” value (PC-3 cells; PC-3, 24 hrs) was “activation of procaspase 3, 7, 8, 9 as well as PARP” and the “EGF-R expression (Id-1 and Id-3 similar)” value (PC-3 cells; PC-3, increasing dosages) was “significantly suppressed to almost undetectable level”. For the same compound, the “sub-G1 cell population (flow cytometry)” value (PC-3 cells; γ-T3 IC50-95, 24 hrs) was “induction of sub-G1 cell population”.
